Measurements published in patent publication US5494907A, “11-β substituted-19-nor steroids” (Roussel UCLAF, priority 1993, dated 1996).

Target: T1, hPR (recombinant human progesterone receptor) (Homo sapiens, UniProt P06401)
T1 construct: made in house; host or cells: SF9 insect cells (ATCC CRL1711), recombinant baculovirus (BaculoGold Transfection Kit, PharMingen 21000K)
T1 sequence (P06401 1-933): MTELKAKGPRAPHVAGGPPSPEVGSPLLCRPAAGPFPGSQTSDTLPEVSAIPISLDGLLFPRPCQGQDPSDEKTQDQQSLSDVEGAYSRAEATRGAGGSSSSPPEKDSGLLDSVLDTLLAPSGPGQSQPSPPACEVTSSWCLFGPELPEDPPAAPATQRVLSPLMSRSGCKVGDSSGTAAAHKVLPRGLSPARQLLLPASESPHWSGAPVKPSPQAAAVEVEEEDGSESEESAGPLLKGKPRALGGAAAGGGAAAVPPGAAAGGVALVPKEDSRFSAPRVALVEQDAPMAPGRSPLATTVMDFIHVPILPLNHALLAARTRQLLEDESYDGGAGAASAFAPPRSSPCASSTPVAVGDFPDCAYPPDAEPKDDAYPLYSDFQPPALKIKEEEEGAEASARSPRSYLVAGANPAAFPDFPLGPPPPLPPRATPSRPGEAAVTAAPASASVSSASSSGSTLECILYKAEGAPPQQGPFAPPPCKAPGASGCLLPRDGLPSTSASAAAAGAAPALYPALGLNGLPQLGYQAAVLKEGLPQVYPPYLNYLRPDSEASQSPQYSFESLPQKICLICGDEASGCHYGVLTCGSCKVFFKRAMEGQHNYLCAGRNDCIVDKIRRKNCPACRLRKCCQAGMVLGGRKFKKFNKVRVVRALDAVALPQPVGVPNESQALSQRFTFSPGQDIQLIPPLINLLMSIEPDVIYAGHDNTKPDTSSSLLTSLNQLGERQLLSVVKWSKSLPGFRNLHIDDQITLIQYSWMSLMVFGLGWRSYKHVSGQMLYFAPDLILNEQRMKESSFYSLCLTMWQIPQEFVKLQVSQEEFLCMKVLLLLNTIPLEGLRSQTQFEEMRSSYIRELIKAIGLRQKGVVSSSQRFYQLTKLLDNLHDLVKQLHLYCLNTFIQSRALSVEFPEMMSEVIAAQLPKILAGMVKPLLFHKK
Assay: Relative bond affinity (RBA) on recombinant human progesterone receptor, displacement of tritiated 17α,21-dimethyl-19-nor-Δ4,9-pregnadien-3,20-dione
Assay type: binding
Conditions: for RBA hPR: Progesterone = 100, 0° C., 24 hours; for affinity for the progesterone receptor (in words): conclusion in words
From the text: 1--Activity on the hormonal receptors using either the natural hormonal receptor of a rat (AR), or the recombinant human receptor (PR, GR and ER).
Human progesterone receptor
The recombinant human progesterone receptor was obtained by superexpression in an insect-Baculovirus cell system by methodology described by WEBB et al. in Journal of Methods in Cell and Molecular Biology, (1990), Vol. 2 N° 4, pp. 173-188 and whose use is described for the expression of human hormonal receptors, for example the human glucocorticoid receptor (SRINIVASAN et al. Molecular Endocrinology, (1990), Vol. 4 N° 2, pp. 209-216).
The BaculoGold Transfection Kit was used (PharMingen, reference 21000K) to insert the cDNA fragment described by KASTNER et al. (The EMBO Journal, (1990), Vol. 9 N° 5, pp. 1603-1614), containing the region coding for the human progesterone receptor and to prepare the corresponding recombinant virus. The recombinant virus was used to express the progesterone receptor in SF9 insect cells (ATCC CRL1711), by the known methodology mentioned previously.
2×10^7 to 2.5×10^7 SF9 cells were cultivated in a […] "Falcon" flask in a TNM-FH "SIGMA" medium supplemented with 10% of foetal calf serum (FCS) and with 50 micrograms/ml of gentamycin. After infection, then incubation at 27° C. for 40 to 42 hours, the cells were lysed in 1 ml of lysis buffer (1) by a freezing-defrosting cycle which was repeated twice more. The supernatant containing the recombinant human progesterone receptor was kept in liquid nitrogen in doses of 1 ml. The supernatant was diluted at the time of use according to a dilution range varying from 1/10th to 1/100th with 10 mM Tris, 0.25 M saccharose, HCl buffer at pH 7.4 containing 0.1% gelatin and then was incubated at 0° C. for 24 hours with a constant concentration (T) of tritiated 17α,21-dimethyl-19-nor-Δ4,9-pregnadien-3,20-dione in the presence of increasing concentrations either of unlabelled progesterone (0-2500×10^-9 M), or of unlabelled product under test (1 to 25000×10^-9 M). The concentration of bound tritiated 17,21-dimethyl 19-nor-Δ4,9-[…] (B) was then measured in each incubate by the technique of adsorption with carbon dextran.
Calculation of the relative bond affinity (RBA).
The following 2 curves were traced: percentage of bound tritiated hormone B/BO as a function of the logarithm of the concentration of unlabelled reference hormone or as a function of the logarithm of the concentration of the unlabelled product under test.
The straight line of the following equation was determined:
BO=Concentration of bound tritiated hormone in the absence of any unlabelled product,
B=Concentration of bound tritiated hormone in the presence of a concentration X of unlabelled product,
B min=Concentration of bound tritiated hormone in the presence of a large excess of cold reference hormone (500 nM). The intersections of the straight line I50 and the curves allowed the evaluation of the concentrations of unlabelled reference hormone (CH) and of the unlabelled product under test (CX) which inhibited by 50% the specific binding of the tritiated hormone on the receptor.
The relative bond affinity (RBA) of the product under test was determined by the equation:
The RBA's of the reference products estradiol, progesterone, dexamethasone and testosterone were arbitrarily taken to be equal to 100.

| Compound | RBA hPR | affinity for the progesterone receptor (in words) |
| --- | --- | --- |
| CCCCNS(=O)(=O)CCCCCOc1ccc([C@H]2C[C@]3(C)[C@@H](O)CC[C@H]3[C@@H]3CCc4cc(O)ccc4[C@H]32)cc1 [Example 2, N-butyl-5-[4-(Δ1,3,5(10)-estratrien-3,17β-diol-11β-yl)phenoxy]-pentanesulfonamide] | 37 | marked affinity |
| CCCCN(C)S(=O)(=O)CCCCCOc1ccc([C@H]2C[C@]3(C)[C@@H](O)CC[C@H]3[C@@H]3CCc4cc(O)ccc4[C@H]32)cc1 [Example 7, N-butyl-5-[4-(Δ1,3,5(10)-estratrien-3,17β-diol-11β-yl)phenoxy]-N-methyl-pentanesulfonamide] | 111 | marked affinity |
| CN(CC(F)(F)C(F)(F)C(F)(F)F)S(=O)(=O)CCCCCOc1ccc([C@H]2C[C@]3(C)[C@@H](O)CC[C@H]3[C@@H]3CCc4cc(O)ccc4[C@H]32)cc1 [Example 8, 5-[4-(Δ1,3,5(10)-estratrien-3,17β-diol-11βyl)-Phenoxy]-N-(2,2,3,3,4,4,4-heptafluorobutyl)-N-methyl-pentanesulfonamide] | 55 | marked affinity |
